Laboratory results published in article PMC6522510 (Nature Communications, 2019).

Tests used:
Set-up in all cases: species or system AML cell lines (8); Primary HTS, single concentration about 10 uM, Cell Titer Glo viability; log10 luminescence, per cent inhibition relative to cycloheximide control
Conditions in all cases: 72 h, relative to cycloheximide control, log10 luminescence; inhibitor
[1] = tested on: MOLM-13
[2] = tested on: CMK
[3] = tested on: M07e
[4] = tested on: U937
[5] = tested on: MV4-11
[6] = tested on: CMS
[7] = tested on: ML-2
[8] = tested on: CHRF288-11

## Nc1c(C(=O)c2cccc(OCCN3CCOCC3)c2)cnn1-c1ccc(F)cc1 [SJ000581103-1]
[1]
  MOLM-13 %inh: -0.4893%
[2]
  CMK %inh: 0.9343%
[3]
  M07e %inh: 6.806%
[4]
  U937 %inh: 7.007%
[5]
  MV4-11 %inh: 1.093%
[6]
  CMS %inh: -1.582%
[7]
  ML-2 %inh: 2.31%
[8]
  CHRF288-11 %inh: -1.374%

## Nc1c(C(=O)c2cccc(CCS(N)(=O)=O)c2)cnn1-c1ccc(F)cc1 [SJ000581104-1]
[1]
  MOLM-13 %inh: -0.2243%
[2]
  CMK %inh: 1.701%
[3]
  M07e %inh: 6.935%
[4]
  U937 %inh: 0.2995%
[5]
  MV4-11 %inh: 1.774%
[6]
  CMS %inh: 3.265%
[7]
  ML-2 %inh: 1.884%
[8]
  CHRF288-11 %inh: -1.775%

## Nc1[nH]nc2nc(-c3cccs3)cc(C(F)(F)F)c12 [SJ000581105-1]
[1]
  MOLM-13 %inh: 17.65%
[2]
  CMK %inh: -1.06%
[3]
  M07e %inh: 8.033%
[4]
  U937 %inh: 0.05414%
[5]
  MV4-11 %inh: 7.712%
[6]
  CMS %inh: 2.722%
[7]
  ML-2 %inh: 1.699%
[8]
  CHRF288-11 %inh: -1.43%

## COc1ccccc1CCN=C1NC(=O)/C(=C/c2ccc3ncccc3c2)S1 [SJ000581106-1]
[1]
  MOLM-13 %inh: 8.02%
[2]
  CMK %inh: 41.08%
[3]
  M07e %inh: 24.66%
[4]
  U937 %inh: 6.939%
[5]
  MV4-11 %inh: 10.91%
[6]
  CMS %inh: 4.605%
[7]
  ML-2 %inh: 10.31%
[8]
  CHRF288-11 %inh: 4.589%

## Cn1cc(C2=C(Sc3ccccc3)C(=O)NC2=O)c2ccccc21 [SJ000581108-1]
[1]
  MOLM-13 %inh: 79.89%
[2]
  CMK %inh: 17.14%
[3]
  M07e %inh: 13.92%
[4]
  U937 %inh: 7.938%
[5]
  MV4-11 %inh: 3.129%
[6]
  CMS %inh: 5.691%
[7]
  ML-2 %inh: 5.065%
[8]
  CHRF288-11 %inh: 15.38%

## Cn1cc(C2=C(c3ccc4ccccc4c3)C(=O)NC2=O)c2ccccc21 [SJ000581109-1]
[1]
  MOLM-13 %inh: 1.67%
[2]
  CMK %inh: 22.8%
[3]
  M07e %inh: 12.46%
[4]
  U937 %inh: 4.798%
[5]
  MV4-11 %inh: 1.463%
[6]
  CMS %inh: 2.57%
[7]
  ML-2 %inh: 4.34%
[8]
  CHRF288-11 %inh: 15.54%

## Nc1c(C(=O)c2cccc(C(O)CO)c2)cnn1-c1ccc(F)cc1 (stereo not drawn) [SJ000581110-1]
[1]
  MOLM-13 %inh: 27.67%
[2]
  CMK %inh: -1.427%
[3]
  M07e %inh: 7.822%
[4]
  U937 %inh: -0.488%
[5]
  MV4-11 %inh: 3.101%
[6]
  CMS %inh: 3.504%
[7]
  ML-2 %inh: 2.206%
[8]
  CHRF288-11 %inh: 9.958%

## CC(=O)Nc1ccc2c(C3=C(c4cn(C)c5ccccc45)C(=O)NC3=O)cn(C)c2c1 [SJ000581111-1]
[1]
  MOLM-13 %inh: 95.13%
[2]
  CMK %inh: 104.7%
[3]
  M07e %inh: 89.33%
[4]
  U937 %inh: 75.9%
[5]
  MV4-11 %inh: 74.04%
[6]
  CMS %inh: 99.23%
[7]
  ML-2 %inh: 39.48%
[8]
  CHRF288-11 %inh: 123.6%

## CCNC(=O)[C@@H]1CCCN2C(=O)CC[C@H](NC(=O)[C@H](Cc3ccc(OP(=O)(O)O)cc3)NC(C)=O)C(=O)N12 [SJ000581112-1]
[1]
  MOLM-13 %inh: 0.008932%
[2]
  CMK %inh: 0.5327%
[3]
  M07e %inh: 4.13%
[4]
  U937 %inh: 0.08443%
[5]
  MV4-11 %inh: 1.373%
[6]
  CMS %inh: -0.07964%
[7]
  ML-2 %inh: 2.455%
[8]
  CHRF288-11 %inh: -7.883%

## Cn1cc(C2=C(c3ccsc3)C(=O)NC2=O)c2ccccc21 [SJ000581113-1]
[1]
  MOLM-13 %inh: 31.75%
[2]
  CMK %inh: 4.136%
[3]
  M07e %inh: 3.37%
[4]
  U937 %inh: 0.5485%
[5]
  MV4-11 %inh: 4.067%
[6]
  CMS %inh: 3.6%
[7]
  ML-2 %inh: 4.351%
[8]
  CHRF288-11 %inh: 8.413%

## CS(=O)(=O)N1CCC(Nc2ncc(C(=O)c3c(F)cccc3F)c(N)n2)CC1 [SJ000581114-1]
[1]
  MOLM-13 %inh: 68.54%
[2]
  CMK %inh: 18.19%
[3]
  M07e %inh: 7.028%
[4]
  U937 %inh: 3.392%
[5]
  MV4-11 %inh: 0.7328%
[6]
  CMS %inh: 2.662%
[7]
  ML-2 %inh: 1.661%
[8]
  CHRF288-11 %inh: 0.1318%

## COc1cc[nH]c1/C=C1\C(=O)Nc2ccc(F)c(I)c21 [SJ000581115-1]
[1]
  MOLM-13 %inh: 8.55%
[2]
  CMK %inh: -0.2359%
[3]
  M07e %inh: 4.603%
[4]
  U937 %inh: 3.766%
[5]
  MV4-11 %inh: 2.865%
[6]
  CMS %inh: 4.321%
[7]
  ML-2 %inh: 0.5185%
[8]
  CHRF288-11 %inh: -1.945%

## CC(C)(O)Cn1c(=O)c(Oc2ccc(F)cc2F)cc2cnc(NC3CCOCC3)nc21 [SJ000581116-1]
[1]
  MOLM-13 %inh: 1.601%
[2]
  CMK %inh: 6.636%
[3]
  M07e %inh: 10.58%
[4]
  U937 %inh: 1.398%
[5]
  MV4-11 %inh: 2.584%
[6]
  CMS %inh: -1.939%
[7]
  ML-2 %inh: 0.2616%
[8]
  CHRF288-11 %inh: -0.4946%

## Cn1c(-c2ccncc2)c(-c2ccc(F)cc2)c2ncccc21 [SJ000581117-1]
[1]
  MOLM-13 %inh: 0.427%
[2]
  CMK %inh: 3.59%
[3]
  M07e %inh: 6.194%
[4]
  U937 %inh: 0.6927%
[5]
  MV4-11 %inh: 3.37%
[6]
  CMS %inh: 0.8281%
[7]
  ML-2 %inh: -0.3566%
[8]
  CHRF288-11 %inh: 26.1%

## CS(=O)(=O)CCc1cccc(C(=O)c2cnn(-c3ccc(F)cc3)c2N)c1 [SJ000581118-1]
[1]
  MOLM-13 %inh: 3.918%
[2]
  CMK %inh: 3.205%
[3]
  M07e %inh: 5.628%
[4]
  U937 %inh: 3.157%
[5]
  MV4-11 %inh: 2.402%
[6]
  CMS %inh: 3.108%
[7]
  ML-2 %inh: 0.2726%
[8]
  CHRF288-11 %inh: -6.13%

## Cn1cc(C2=C(c3ccccc3[N+](=O)[O-])C(=O)NC2=O)c2ccccc21 [SJ000581119-1]
[1]
  MOLM-13 %inh: 15.35%
[2]
  CMK %inh: 89.69%
[3]
  M07e %inh: 28.37%
[4]
  U937 %inh: 6.728%
[5]
  MV4-11 %inh: 44.46%
[6]
  CMS %inh: 101.9%
[7]
  ML-2 %inh: 6.35%
[8]
  CHRF288-11 %inh: 24.65%

## CCOc1ccccc1CCN=C1NC(=O)/C(=C/c2ccc3ncccc3c2)S1 [SJ000581120-1]
[1]
  MOLM-13 %inh: 1.703%
[2]
  CMK %inh: 13.66%
[3]
  M07e %inh: 13.3%
[4]
  U937 %inh: 6.277%
[5]
  MV4-11 %inh: 0.5335%
[6]
  CMS %inh: 5.975%
[7]
  ML-2 %inh: 18.56%
[8]
  CHRF288-11 %inh: -1.679%

## Cn1c(=O)c(Oc2ccc(F)cc2F)cc2cnc(N[C@H]3CCOC3)nc21 [SJ000581121-1]
[1]
  MOLM-13 %inh: 1.492%
[2]
  CMK %inh: 3.547%
[3]
  M07e %inh: 5.749%
[4]
  U937 %inh: 1.362%
[5]
  MV4-11 %inh: 2.632%
[6]
  CMS %inh: 4.412%
[7]
  ML-2 %inh: 0.08921%
[8]
  CHRF288-11 %inh: -0.8909%

## Nc1c(C(=O)c2ccccc2)cnn1-c1ccc(F)cc1 [SJ000581122-1]
[1]
  MOLM-13 %inh: 2.618%
[2]
  CMK %inh: 1.79%
[3]
  M07e %inh: 10.33%
[4]
  U937 %inh: -0.682%
[5]
  MV4-11 %inh: -1.368%
[6]
  CMS %inh: -0.3703%
[7]
  ML-2 %inh: 1.652%
[8]
  CHRF288-11 %inh: -5.198%

## N#Cc1cccc(C(=O)c2cnn(-c3ccc(F)cc3)c2N)c1 [SJ000581124-1]
[1]
  MOLM-13 %inh: 0.9707%
[2]
  CMK %inh: 1.804%
[3]
  M07e %inh: 5.547%
[4]
  U937 %inh: 2.317%
[5]
  MV4-11 %inh: -1.446%
[6]
  CMS %inh: 0.5963%
[7]
  ML-2 %inh: 1.377%
[8]
  CHRF288-11 %inh: -6.686%

## Cn1cc(C2=C(c3cn(CCN)c4ccccc34)C(=O)NC2=O)c2ccccc21 [SJ000581125-1]
[1]
  MOLM-13 %inh: 2.432%
[2]
  CMK %inh: 4.026%
[3]
  M07e %inh: 2.044%
[4]
  U937 %inh: -0.6181%
[5]
  MV4-11 %inh: 10.77%
[6]
  CMS %inh: 4.695%
[7]
  ML-2 %inh: 0.3075%
[8]
  CHRF288-11 %inh: -0.3568%

## CC(=O)N[C@@H](Cc1ccc(OP(=O)(O)O)cc1)C(=O)N[C@H]1CCC(=O)N2CCC[C@@H](C(=O)NCc3cccc4ccccc34)N2C1=O [SJ000581126-1]
[1]
  MOLM-13 %inh: 1.087%
[2]
  CMK %inh: 0.6517%
[3]
  M07e %inh: 3.709%
[4]
  U937 %inh: 1.351%
[5]
  MV4-11 %inh: 0.5498%
[6]
  CMS %inh: 3.071%
[7]
  ML-2 %inh: -1.495%
[8]
  CHRF288-11 %inh: 5.32%

## O=C1NC(=NCCCc2ccccc2)S/C1=C\c1ccc2ncccc2c1 [SJ000581127-1]
[1]
  MOLM-13 %inh: 42.49%
[2]
  CMK %inh: 8.234%
[3]
  M07e %inh: 6.993%
[4]
  U937 %inh: 2.066%
[5]
  MV4-11 %inh: 18.37%
[6]
  CMS %inh: 4.391%
[7]
  ML-2 %inh: 2.496%
[8]
  CHRF288-11 %inh: -2.357%

## COc1cc[nH]c1/C=C1\C(=O)Nc2ccc([N+](=O)[O-])c(N3CC[C@@H](O)C3)c21 [SJ000581128-1]
[1]
  MOLM-13 %inh: 123.9%
[2]
  CMK %inh: 98.31%
[3]
  M07e %inh: 106%
[4]
  U937 %inh: 87.66%
[5]
  MV4-11 %inh: 84.07%
[6]
  CMS %inh: 95.24%
[7]
  ML-2 %inh: 60.5%
[8]
  CHRF288-11 %inh: 53.94%
